Assay type in all cases: cell-based
Assay [1] deals with T1, human muscarinic M1 receptor (Homo sapiens, UniProt P11229).
T1 sequence (P11229 1-460): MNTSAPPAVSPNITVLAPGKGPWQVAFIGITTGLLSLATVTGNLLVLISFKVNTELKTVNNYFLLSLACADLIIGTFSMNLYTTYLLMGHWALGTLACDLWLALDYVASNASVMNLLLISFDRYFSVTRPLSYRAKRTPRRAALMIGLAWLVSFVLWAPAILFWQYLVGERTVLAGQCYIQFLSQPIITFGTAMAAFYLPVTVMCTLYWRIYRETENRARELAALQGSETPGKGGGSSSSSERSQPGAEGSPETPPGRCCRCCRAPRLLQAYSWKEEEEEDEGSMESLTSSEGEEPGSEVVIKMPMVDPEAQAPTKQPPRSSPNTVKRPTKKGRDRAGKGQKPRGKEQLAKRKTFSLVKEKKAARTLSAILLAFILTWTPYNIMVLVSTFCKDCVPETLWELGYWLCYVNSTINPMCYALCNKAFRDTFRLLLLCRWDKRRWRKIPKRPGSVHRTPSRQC
The experiment in a line: Alphascreen Surefire phospho-ERK1/2 functional assay, M1. As to conditions: for % Emax cf. ACh, M1: CHO cells stably expressing human M1; for % Emax cf. ACh, M1 / Emax: Emax relative to ACh; for EC50: pEC50 M1, CHO cells stably expressing human M1, phospho-ERK1/2; for Emax: CHO, read-out: % Emax cf. ACh, M1, CHO cells stably expressing human M1. The method in brief: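 Stably transfected CHO cells, serum-starved overnight, then exposed to agonist for 5 min at 37 °C. Cells lysed and phospho-ERK1/2 measured by AlphaScreen SureFire.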
For orientation: Bead proximity is the source of the signal in Alpha formats.

The target in assay [2] is T2, human muscarinic M2 receptor (Homo sapiens, UniProt P08172).
T2 sequence (P08172 1-466): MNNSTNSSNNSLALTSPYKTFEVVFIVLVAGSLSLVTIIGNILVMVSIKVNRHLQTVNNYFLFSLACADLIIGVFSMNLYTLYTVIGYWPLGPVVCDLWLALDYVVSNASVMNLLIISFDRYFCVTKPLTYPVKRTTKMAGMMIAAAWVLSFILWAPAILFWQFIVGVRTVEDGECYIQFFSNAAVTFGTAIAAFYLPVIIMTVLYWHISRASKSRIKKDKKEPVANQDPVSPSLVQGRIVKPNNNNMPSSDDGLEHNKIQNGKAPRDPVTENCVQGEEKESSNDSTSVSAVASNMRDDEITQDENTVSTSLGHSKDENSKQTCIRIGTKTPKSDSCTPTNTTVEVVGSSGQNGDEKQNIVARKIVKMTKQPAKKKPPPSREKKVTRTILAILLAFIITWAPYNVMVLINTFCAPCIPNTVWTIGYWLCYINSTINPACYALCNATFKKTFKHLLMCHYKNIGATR
The experiment in a line: Alphascreen Surefire phospho-ERK1/2 functional assay, M2. As to conditions: for % Emax cf. ACh, M2: CHO cells stably expressing human M2; for EC50: pEC50 M2, CHO cells stably expressing human M2, phospho-ERK1/2. The method in brief:
(§1)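 CHO cells stably expressing human M1, M2, M3 or M4 receptor, serum-starved overnight, then stimulated with agonist for 5 min at 37 °C. Cells lysed for 15 min and phospho-ERK1/2 detected in the lysate by AlphaScreen SureFire.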

The target in assay [3] is T3, human muscarinic M3 receptor (Homo sapiens, UniProt P20309).
T3 construct: expressed in transfected cells
The experiment in a line: Alphascreen Surefire phospho-ERK1/2 functional assay, M3. As to conditions: for % Emax cf. ACh, M3: CHO cells stably expressing human M3; for % Emax cf. ACh, M3 / Emax: Emax relative to ACh; for EC50: pEC50 M3, CHO cells stably expressing human M3, phospho-ERK1/2; for Emax: CHO, read-out: % Emax cf. ACh, M3, CHO cells stably expressing human M3. The method in brief:
as §1

In assay [4] the target is T4, human muscarinic M4 receptor (Homo sapiens, UniProt P08173).
T4 sequence (P08173 1-479): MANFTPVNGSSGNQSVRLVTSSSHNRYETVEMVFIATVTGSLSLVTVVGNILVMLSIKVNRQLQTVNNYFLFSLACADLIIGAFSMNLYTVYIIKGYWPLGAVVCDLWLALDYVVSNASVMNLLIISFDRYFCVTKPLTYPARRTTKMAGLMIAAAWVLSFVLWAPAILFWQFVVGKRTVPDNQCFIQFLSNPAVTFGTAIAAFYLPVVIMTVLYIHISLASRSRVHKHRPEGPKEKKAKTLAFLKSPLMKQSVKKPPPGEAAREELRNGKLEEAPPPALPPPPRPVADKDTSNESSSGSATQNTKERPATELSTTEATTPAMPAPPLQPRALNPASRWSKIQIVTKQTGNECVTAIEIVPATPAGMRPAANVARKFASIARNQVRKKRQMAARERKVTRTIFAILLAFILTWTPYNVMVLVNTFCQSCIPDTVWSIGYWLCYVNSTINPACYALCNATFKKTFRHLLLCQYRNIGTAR
The experiment in a line: Alphascreen Surefire phospho-ERK1/2 functional assay, M4. The note with it: for % Emax cf. ACh, M4: CHO cells stably expressing human M4; for % Emax cf. ACh, M4 / Emax: Emax relative to ACh; for EC50: pEC50 M4, CHO cells stably expressing human M4, phospho-ERK1/2; for Emax: CHO, read-out: % Emax cf. ACh, M4, CHO cells stably expressing human M4. The method in brief:
as §1

T3 sequence (P20309 whole entry): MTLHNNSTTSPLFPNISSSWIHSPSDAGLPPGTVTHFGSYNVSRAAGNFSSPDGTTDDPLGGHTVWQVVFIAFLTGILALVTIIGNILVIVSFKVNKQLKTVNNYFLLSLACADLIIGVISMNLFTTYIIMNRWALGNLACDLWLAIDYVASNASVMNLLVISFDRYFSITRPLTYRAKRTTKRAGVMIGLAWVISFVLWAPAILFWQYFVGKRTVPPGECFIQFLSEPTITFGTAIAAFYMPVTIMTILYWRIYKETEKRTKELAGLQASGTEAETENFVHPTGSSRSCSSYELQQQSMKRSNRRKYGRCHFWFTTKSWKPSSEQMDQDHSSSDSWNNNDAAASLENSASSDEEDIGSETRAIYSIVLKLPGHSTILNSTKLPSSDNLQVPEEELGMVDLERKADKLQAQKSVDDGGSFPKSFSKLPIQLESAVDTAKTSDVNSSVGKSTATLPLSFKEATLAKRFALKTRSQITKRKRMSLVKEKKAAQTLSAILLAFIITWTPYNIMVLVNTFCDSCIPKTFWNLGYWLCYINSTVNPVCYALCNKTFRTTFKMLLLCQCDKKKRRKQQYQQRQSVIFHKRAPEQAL

On to `CCOC(=O)N1C2COCC1CC(N1CCC(N(CC3(C)CC3)C(C)=O)CC1)C2` (single isomer, unassigned) [Example 6-3 Isomer 1, Ethyl 7-(4-{acetyl[(1-methylcyclopropyl)methyl]amino}piperidin-1-yl)-3-oxa-9-azabicyclo[3.3.1]nonane-9-carboxylate], for which, in assay [1] (listed as 6-3 Isomer 1), the “% Emax cf. ACh, M1” value was found to be 124%. Also, the 50% effective concentration (EC50) – broadly, the midpoint of the concentration-response curve – is 120 nM in assay [1], 355 nM in assay [2], more than 20000 nM in assay [3] and 60.3 nM in assay [4]. Besides, the “% Emax cf. ACh, M2” value in assay [2] (Emax relative to ACh, listed as 6-3 Isomer 1) was 36%. The “% Emax cf. ACh, M3” value in assay [3] (listed as 6-3 Isomer 1) is recorded as 390%. For the same compound, the “% Emax cf. ACh, M4” value in assay [4] (listed as 6-3 Isomer 1) was 93%.

With `CCOC(=O)N1C2COCC1CC(N1CCC(N(CC(C)C)C(C)=O)CC1)C2` (single isomer, unassigned) [Example 6-1 Isomer 1, Ethyl 7-{4-[acetyl(2-methylpropyl)amino]piperidin-1-yl}-3-oxa-9-azabicyclo[3.3.1]nonane-9-carboxylate], the maximal response (Emax) – broadly, the size of the effect at its maximum, as opposed to the concentration needed – in assay [1] is 93%. The half-maximal effective concentration (EC50) in assay [1] was 178 nM; in assay [2] it was more than 20000 nM; in assay [3] it was more than 20000 nM; in assay [4] it was 151 nM. For the same compound, the “% Emax cf. ACh, M2” value in assay [2] (Emax relative to ACh, listed as 6-1 Isomer 1) came out at 26%. Further, the “% Emax cf. ACh, M3” value in assay [3] (listed as 6-1 Isomer 1) worked out at 7%. The “% Emax cf. ACh, M4” value in assay [4] (listed as 6-1 Isomer 1) turned out to be 77%.

With `CCOC(=O)N1C2COCC1CC(N1CCC3(CC1)C(=O)Nc1ccccc13)C2` (single isomer, unassigned) [Example 5-5 Isomer 1, Ethyl 7-(2-oxo-1,2-dihydro-1′H-spiro[indole-3,4′-piperidin]-1′-yl)-3-oxa-9-azabicyclo[3.3.1]nonane-9-carboxylate], the “% Emax cf. ACh, M1” value in assay [1] (listed as 5-5 Isomer 1) was determined as 75%. Further, the EC50 in assay [1] was 288 nM; in assay [2], 123 nM; in assay [3], more than 20000 nM; in assay [4], 21.4 nM. Further, the “% Emax cf. ACh, M2” value in assay [2] (Emax relative to ACh, listed as 5-5 Isomer 1) stood at 24%. The maximal effect (Emax) in assay [3] was found to be 4%; in assay [4], 99%.

Take `CCOC(=O)N1C2COCC1CC(N1CCC(n3cc(C)cn3)CC1)C2` (single isomer, unassigned) [Example 1-3 Isomer 1, Ethyl 7-[4-(4-methyl-1H-pyrazol-1-yl)piperidin-1-yl]-3-oxa-9-azabicyclo[3.3.1]nonane-9-carboxylate]: in assay [1] (listed as 1-3 Isomer 1), the “% Emax cf. ACh, M1” value is reported as 124%. Moreover, the concentration for a half-maximal effect (EC50) in assay [1] is 55 nM; in assay [2] it was 282 nM; in assay [3], 2510 nM; in assay [4], 7.24 nM. Also, the “% Emax cf. ACh, M2” value in assay [2] (Emax relative to ACh, listed as 1-3 Isomer 1) came to 112%. Moreover, in assay [3] (listed as 1-3 Isomer 1), the “% Emax cf. ACh, M3” value is 40%. For the same compound, in assay [4], the Emax amounted to 99%.

Turning to `CCOC(=O)N1C2COCC1CC(N1CCC(n3cc(Cl)cn3)CC1)C2` (single isomer, unassigned) [Example 1-2 Isomer 2, Ethyl 7-[4-(4-chloro-1H-pyrazol-1-yl)piperidin-1-yl]-3-oxa-9-azabicyclo[3.3.1]nonane-9-carboxylate], in assay [1] (listed as 1-2 Isomer 2), the “% Emax cf. ACh, M1” value amounted to 67%. The EC50 in assay [1] was 77.6 nM; in assay [2] it was more than 20000 nM; in assay [3], more than 20000 nM; in assay [4], 13.2 nM. Moreover, the “% Emax cf. ACh, M2” value in assay [2] (Emax relative to ACh, listed as 1-2 Isomer 2) came out at 10%. The Emax in assay [3] was 2%. The “% Emax cf. ACh, M4” value in assay [4] (listed as 1-2 Isomer 2) stood at 51%.

As to `CCOC(=O)N1C2COCC1CC(N1CCC(N3CC(F)(F)C[C@@H]3CO)CC1)C2` (single isomer, unassigned) [Example 4-1 Isomer 1], in assay [1] (listed as 4-1 Isomer 1), the “% Emax cf. ACh, M1” value was 108%. The concentration giving a half-maximal response (EC50) in assay [1] was 155 nM; in assay [2], 251 nM; in assay [3] it was more than 20000 nM; in assay [4], 30.9 nM. For the same compound, the “% Emax cf. ACh, M2” value in assay [2] (Emax relative to ACh, listed as 4-1 Isomer 1) came to 87%. The “% Emax cf. ACh, M3” value in assay [3] (listed as 4-1 Isomer 1) turned out to be 11%. For the same compound, in assay [4] (listed as 4-1 Isomer 1), the “% Emax cf. ACh, M4” value worked out at 114%.

As to `CCOC(=O)N1C2COCC1CC(N1CCC(C(=O)NCC3CCC3)CC1)C2` (single isomer, unassigned) [Example 7-3 Isomer 1, Ethyl 7-{4-[(cyclobutylmethyl)carbamoyl]piperidin-1-yl}-3-oxa-9-azabicyclo[3.3.1]nonane-9-carboxylate], the Emax in assay [1] worked out at 100%; in assay [2] (CHO, read-out: % Emax cf. ACh, M2, CHO cells stably expressing human M2, Emax relative to ACh), 62%; in assay [3], 57%; in assay [4], 97%. In addition, the EC50 in assay [1] is 35.5 nM; in assay [2], 1480 nM; in assay [3], more than 20000 nM; in assay [4], 275 nM.

For the compound `CCOC(=O)N1C2COCC1CC(N1CCC(n3cc(C)cn3)CC1)C2` (single isomer, unassigned) [Example 1-3 Isomer 2, Ethyl 7-[4-(4-methyl-1H-pyrazol-1-yl)piperidin-1-yl]-3-oxa-9-azabicyclo[3.3.1]nonane-9-carboxylate], the “% Emax cf. ACh, M1” value in assay [1] (listed as 1-3 Isomer 2) is 45%. Besides, the EC50 in assay [1] is 316 nM; in assay [2] it was more than 20000 nM; in assay [3], more than 20000 nM; in assay [4], 112 nM. Besides, the “% Emax cf. ACh, M2” value in assay [2] (Emax relative to ACh, listed as 1-3 Isomer 2) came to 11%. The “% Emax cf. ACh, M3” value in assay [3] (listed as 1-3 Isomer 2) was 5%. For the same compound, the “% Emax cf. ACh, M4” value in assay [4] is reported as 81%.

With `CCOC(=O)N1C2COCC1CC(N1CCC(N(CC3(C)CCC3)C(C)=O)CC1)C2` (single isomer, unassigned) [Example 6-4 Isomer 2, Ethyl 7-(4-{acetyl[(1-methylcyclobutyl)methyl]amino}piperidin-1-yl)-3-oxa-9-azabicyclo[3.3.1]nonane-9-carboxylate], in assay [1] (listed as 6-4 Isomer 2), the “% Emax cf. ACh, M1” value is reported as 72%. For the same compound, the EC50 in assay [1] was 33.9 nM; in assay [2], more than 20000 nM; in assay [3], more than 20000 nM; in assay [4], 204 nM. In addition, the “% Emax cf. ACh, M2” value in assay [2] (Emax relative to ACh, listed as 6-4 Isomer 2) was 15%. For the same compound, the Emax in assay [3] was 19%. For the same compound, the “% Emax cf. ACh, M4” value in assay [4] (listed as 6-4 Isomer 2) was found to be 38%.

The values above are taken from patent US10787447B2, “Pharmaceutical compounds” (Heptares Therapeutics Limited, priority 2018, dated 2020).
